{"source": "patent US20080085889A1", "about": "“Amidomethyl-Substituted 1-(Carboxyalkyl) Cyclopentyl-Carbonylamino-Benzazepine-N-Acetic Acid Compounds, Process and Intermediate Products for Their Preparation and Pharmaceutical Compositions Containing Them” (SOLVAY PHARMACEUTICALS GmbH, priority 2003, published 2008)", "key": {"[1]": {"test": "Plasma protein binding, equilibrium dialysis, rat plasma", "type": "in vitro ADME", "details": "rat plasma (10% for routine testing), 37° C., pH 7.4, 10% plasma (100% for low binders), read-out: % bound (rat plasma) (converted)", "description": "(§1) Plasma protein binding of the test substances of Formula I was measured using a validated equilibrium dialysis method. The dialysis cells consisted of two halves separated by a semi-permeable membrane slightly tensioned in between. […] Before being used, the membranes were re-hydrated by soaking in water followed by the dialysis buffer. Plasma (10% for routine testing, and 100% for compounds found to have a low protein binding) was heated to 37° C. and adjusted to pH 7.4 before use. 5 μM test compound solutions (final dimethylsulfoxide concentration 0.5%) were prepared in isotonic phosphate buffer containing rat or human plasma. The plasma-containing solution was on one side of the membrane, and the plasma-free on the other. Incubations were performed overnight (10% plasma assay), or for 2 hours (100% plasma assay) in triplicate. The cells were mounted in a drive unit that rotated the cells and ensured a uniform equilibrium was obtained. The equilibrium was temperature controlled by the drive unit being immersed in a water bath at 37° C. At the end of the equilibration time, the cells were emptied. The solutions for each batch of compounds were combined into two groups (plasma-free and plasma-containing) then cassette analysed by LC-MS/MS using two sets of calibration standards for plasma-free (7 points) and plasma-containing solutions (6 points). The percentage of protein bound compound was calculated as follows: [formula] PC=sample concentration in protein containing side; PF=sample concentration in protein free side;"}, "[2]": {"biological_target": "T1, soluble, human recombinant NEP (Homo sapiens, UniProt P08473)", "T1 construct": "soluble, human recombinant NEP; purchased Prof; Crine, University of Montreal, Canada", "T1 sequence (P08473 52-750 limits assumed)": "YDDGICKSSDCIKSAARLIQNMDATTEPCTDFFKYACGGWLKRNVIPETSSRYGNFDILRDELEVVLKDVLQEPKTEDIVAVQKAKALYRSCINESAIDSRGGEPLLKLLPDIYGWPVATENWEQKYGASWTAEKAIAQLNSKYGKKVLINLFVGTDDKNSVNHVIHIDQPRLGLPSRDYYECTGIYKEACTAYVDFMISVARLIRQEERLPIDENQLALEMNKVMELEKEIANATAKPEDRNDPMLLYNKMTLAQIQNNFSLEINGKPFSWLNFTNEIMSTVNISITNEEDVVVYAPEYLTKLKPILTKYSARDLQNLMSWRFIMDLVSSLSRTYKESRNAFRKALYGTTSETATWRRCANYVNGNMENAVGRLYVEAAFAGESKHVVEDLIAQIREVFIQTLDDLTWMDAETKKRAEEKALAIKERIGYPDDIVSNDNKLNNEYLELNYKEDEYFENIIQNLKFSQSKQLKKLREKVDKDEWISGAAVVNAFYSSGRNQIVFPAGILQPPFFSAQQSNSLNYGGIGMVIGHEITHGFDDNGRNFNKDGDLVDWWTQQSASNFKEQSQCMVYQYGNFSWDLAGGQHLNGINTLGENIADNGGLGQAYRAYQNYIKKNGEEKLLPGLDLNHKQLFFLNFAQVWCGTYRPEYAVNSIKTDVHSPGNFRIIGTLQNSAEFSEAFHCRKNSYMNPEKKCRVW", "test": "In-vitro investigation of the NEP inhibitory action (fluorescence-quenched Big-ET-1 analogue, HPLC)", "type": "biochemical", "outline": "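Enzyme preincubated with test substance 15 min at 37° C, then incubated with fluorescence-quenched Mca peptide substrate 60 min at 37° C and stopped by heating to 95° C. Cleaved and intact peptide separated by reversed-phase HPLC; unquenched Mca peak area (ex 328/em 393 nm) gave % inhibition versus no-compound control, duplicates, IC50 derived.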"}, "[3]": {"system": "maximal SAP response to Big-ET", "test": "In vivo inhibition of maximal SAP response to Big-ET in anesthetized rats after oral administration", "set-up": "species or system Rats (Sprague-Dawley)", "details": "oral by gavage, 100 μmol/kg, 1 h before Big-ET challenge; mean ± standard error; negative = inhibition", "description": "Rats (Sprague-Dawley, CRLD=Charles River) were anaesthetised with 1 ml/kg Rompun/Ketavet 1:1. A pressure transducer (Statham) was inserted into the carotid artery to measure blood pressure.\nFor oral testing, the substances (or vehicle) were given by gavage at doses of 100 μmol/kg each, 1 h before the Big-ET challenge, and blood pressure and heart rate were monitored as described above.\nThe inhibition of maximal SAP response to Big-ET in anesthetized rats following oral administration of the test substances of Formula I is set forth in the following Table 3c: […]\nData given in table 3c as negative values indicate an inhibitory effect. Values are means from 3-6 independent series of experiments ±standard error."}, "[4]": {"test": "Plasma protein binding, equilibrium dialysis, human plasma", "type": "in vitro ADME", "details": "human plasma (10% for routine testing), 37° C., pH 7.4, 10% plasma (100% for low binders), read-out: % bound (human plasma) (converted)", "description": "as §1"}, "[5]": {"biological_target": "T2, His6-tagged hSEP ectodomain (Homo sapiens, UniProt Q495T6)", "T2 construct": "His6-tagged hSEP ectodomain; His6; purchased Innogenetics, Ghent, Belgium", "T2 sequence (Q495T6 49-779 limits assumed)": "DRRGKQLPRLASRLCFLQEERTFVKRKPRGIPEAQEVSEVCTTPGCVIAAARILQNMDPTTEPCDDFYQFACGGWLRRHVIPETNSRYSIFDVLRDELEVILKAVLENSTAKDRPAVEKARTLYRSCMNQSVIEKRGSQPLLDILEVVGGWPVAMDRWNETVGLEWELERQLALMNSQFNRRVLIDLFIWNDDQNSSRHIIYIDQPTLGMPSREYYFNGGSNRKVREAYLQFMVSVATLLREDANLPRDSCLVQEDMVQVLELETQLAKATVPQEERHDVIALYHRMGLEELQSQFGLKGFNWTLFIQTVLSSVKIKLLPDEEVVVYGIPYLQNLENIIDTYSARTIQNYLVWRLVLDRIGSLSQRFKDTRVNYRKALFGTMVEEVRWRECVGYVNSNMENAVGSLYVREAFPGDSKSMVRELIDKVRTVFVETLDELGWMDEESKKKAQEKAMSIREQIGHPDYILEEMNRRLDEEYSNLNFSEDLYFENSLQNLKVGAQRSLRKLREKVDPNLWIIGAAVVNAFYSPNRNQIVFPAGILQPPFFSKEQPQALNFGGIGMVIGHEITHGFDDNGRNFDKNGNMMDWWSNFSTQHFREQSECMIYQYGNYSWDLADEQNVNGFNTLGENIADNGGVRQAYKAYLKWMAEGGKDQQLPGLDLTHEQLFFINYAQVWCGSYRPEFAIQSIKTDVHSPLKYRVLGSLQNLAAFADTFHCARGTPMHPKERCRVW", "test": "In vitro investigation of the hSEP-inhibitory action (fluorescence-quenched Big-ET-1 analogue, HPLC)", "type": "biochemical", "outline": "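Performed as for the NEP assay, with HPLC analysis and 10 nM phosphoramidon as the standard inhibitor. IC50 is the compound concentration blocking 50% of hSEP enzymatic activity.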"}, "[6]": {"biological_target": "T3, hSEP (sol hu)(his)6; His6-tagged hSEP ectodomain (Homo sapiens, UniProt Q495T6)", "T3 construct": "His6-tagged hSEP ectodomain; His6; purchased Innogenetics, Ghent, Belgium", "T3 sequence (Q495T6 49-779 limits assumed)": "T2 sequence (Q495T6 49-779 limits assumed)", "test": "Enzymatic breakdown of CNP and VIP by hSEP and its inhibition, in vitro, HPLC", "type": "biochemical", "details": "no inhibitor, 37° C.", "description": "The inhibition of the enzymatic breakdown of CNP and VIP by the compounds used according to the invention was measured in an enzymatic in vitro assay according to the following protocol:\nAll test compounds were dissolved in DMSO at 10 mM and further diluted with assay buffer.\n80 μl of assay buffer, 10 μl of enzyme working solution (NEP or hSEP) and 10 μl of peptide stock solution (VIP or CNP) were mixed in an Eppendorf vial and incubated for 120 min. at 37° C. The enzymatic reaction was subsequently terminated by heating to 95° C. for 5 min. After centrifugation (Heraeus Biofuge B, 3 min) the supernatant was subjected to HPLC.\n70 μl of assay buffer, 10 μl of enzyme working solution (NEP or hSEP) and 10 μl of a test compound solution were mixed in an Eppendorf vial and preincubated at 37° C. for 15 minutes. Then, 10 μl of peptide stock solution (VIP or CNP) was added and the reaction mixture was incubated at 37° C. for 60 min. to allow enzymatic hydrolysis. The enzymatic reaction was subsequently terminated by heating to 95° C. for 5 min. After centrifugation (Heraeus Biofuge B, 3 min) the supernatant was subjected to HPLC. In order to separate the remaining substrate from the cleavage products, a reversed phase HPLC technique with a CC 125/4 Nucleosil 300/5 C18 RP column and a CC 8/4 Nucleosil 100/5 C18 precolumn (Macherey-Nagel, Düren, Germany) was used. 60 μl of the reaction samples were injected into the HPLC and the column was eluted at a flow rate of 1 ml/min with the following gradient:\nAll peptides were detected by absorbance at 214 nm (UV spectroscopy). The percentage (=%) of hydrolysis was calculated on the basis of the peak area of the undegraded peptide for an enzyme containing sample Y in correlation to a sample containing the same concentration of peptide without enzyme (blank) by the following equation: % hydrolysis=100*(blank−Y)\nBasis of the calculation of % inhibition is the peak area of the undegraded peptide (VIP or CNP) for an inhibitor containing sample X in comparison to samples containing only peptide (blank) or peptide and enzyme without inhibitor (control) according to the following equation: % inhib=100*(X−control)/(blank−control)\nAll samples were run in duplicate and mean values were used. A solvent control (0.1% DMSO) was added to each assay run. CNP and VIP were cleaved by NEP and hSEP in vitro."}}, "data": [{"molecule": "CCN(CCCN)C(=O)CC(CC1(C(=O)NC2CCc3ccccc3N(CC(=O)O)C2=O)CCCC1)C(=O)O", "note": "(stereo not shown) [Example 80, 4-[(3-aminopropyl)(ethyl)amino]-2-{[1-({[1-(carboxymethyl)-2-oxo-2,3,4,5-tetrahydro-1H-1-benzazepin-3-yl]amino}carbonyl)cyclopentyl]methyl}-4-oxobutanoic acid]", "values": [{"measurement": "fraction unbound at 5 μM", "setting": "[1]", "value": 0.73}, {"measurement": "IC50", "setting": "[2]", "value": 16, "unit": "nM"}, {"measurement": "% substance-related inhibition of the maximum Big-ET effect on SAP vs. control", "setting": "[3]", "value": "−43 ± 5", "unit": "%"}, {"measurement": "fraction unbound at 5 μM", "setting": "[4]", "value": 0.66}, {"measurement": "IC50", "setting": "[5]", "value": 3, "unit": "nM"}]}, {"molecule": "VIP: vasoactive intestinal peptide, substrate of NEP and hSEP; supplier Bachem [reference compound]", "values": [{"measurement": "breakdown of VIP by hSEP, degradation at t = 2 h", "setting": "[6]", "value": 36, "unit": "%"}]}, {"molecule": "CNP: c-type natriuretic peptide, CNP (32-53), substrate of NEP and hSEP; supplier Bachem [reference compound]", "values": [{"measurement": "breakdown of CNP by hSEP, degradation at t = 2 h", "setting": "[6]", "value": 46, "unit": "%"}]}]}
